Assay results published in US5137811A, “Method for diagnosing periodontal diseases with a substrate specific for aminopeptidase activity of periodontopathic bacteria” (Sunstar Kabushiki Kaisha, priority 1986, dated 1992).
Where a SMILES comes first, the peptide text is derived from it. The star is where a group is joined. βNA = c1ccc2cc(N*)ccc2c1; Cbz = O=C(OCc1ccccc1)*

Legend:
[1] = test system: periodontopathic bacteria specific aminopeptidase activity; test: Hydrolytic activity of saliva supernatant (Experiment 7); assay type: biochemical; settings: 37° C. for 4 hours, Table 7
Protocol: (§1) Specimens of gingival crevicular fluid were collected with paper points from five subjects who were considered to be healthy from their clinical state, six subjects with gingivitis and six subjects with periodontitis. Each specimen was dispersed in Ringer's solution (1.5 ml), and the relative amount of spirochete to total bacteria: [formula] was determined with a phase contrast microscope. Further, the Ringer's solution (0.3 ml) was tested for hydrolytic activity using the substrate solution prepared in the same manner as described in Experiment 1. As substrates, there were used compounds of the formula [1], i.e., N-benzoylvalyl-glycyl-arginine-β-naphthylamide (BzVGR) and N-carbobenzoxy-valyl-glycyl-arginine-β-naphthylamide (CxVGR) were used.
(§2) A saliva mixture was collected from a group consisting of ten healthy subjects and centrifuged to obtain a supernatant. Likewise, centrifuged supernatants were obtained from a group of ten subjects with adult periodontitis and a group of four localized juvenile periodontitis. The supernatant was used as a specimen and its hydrolytic activity was determined according to the same manner as described in Experiment 4 except that the reaction was carried out at 37° C. for 4 hours. As the substrates, there were used N-carbobenzoxy-valyl-glycyl-arginine-p-nitrophenol (CxVGR-pNP), N-carbobenzoxy-valyl-glycylarginine-4-methoxy-2-naphthylamide (CxVGR-4NA) and N-carbobenzoxy-valyl-glycyl-arginine-β-naphthylamide (CxVGR-βNA). Color was developed by using lN sodium hydroxide for CxVGR-pNP and Fast Blue BB for CxVGR-4NA and CxVGR-βNA.

[2] = test system: Actinobacillus actinomycetemcomitans; test: Hydrolytic activity of cell suspension, substrates alone or in combination (Experiment 3); assay type: cell-based; settings: four strains, Table 3
Summary of the method: (§3)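 Cell suspensions (A660 = 1.0) were grown at 37 °C: Treponema anaerobically in TYGVS for 7 days, others in BHI broth for 48–72 h. They were reacted 60 min at 37 °C with 0.2 mM β-naphthylamide aminopeptidase substrate solutions (0.1 M Tris-HCl, pH 7.0), then Garnet GBC was added and A525 read after 15 min. Mean released β-naphthylamine per species was graded: +++ 40–<80, ++++ ≥80 nmol/ml.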

Fusobacterium nucleatum [3] = test: as above; assay type: cell-based; settings: three strains, Table 3
Summary of the method: as §3

Treponema denticola [4] = test: as above; assay type: cell-based; settings: four strains, Table 3
Summary of the method: as §3

B. gingivalis = test: as above; assay type: cell-based; settings: five strains, Table 3
Summary of the method: as §3

Actinomyces israelli = test: as above; assay type: cell-based; settings: two strains, Table 3
Summary of the method: as §3

[5] = test system: periodontopathic bacteria specific aminopeptidase activity; test: Hydrolytic activity of gingival crevicular fluid specimens, OD525 (Experiment 6); assay type: biochemical
Protocol: (§4) Substrate compounds for aminopeptidase enzyme having various color developing groups derived from β-naphthylamine were dissolved in 0.1M Tris-HCl buffer (pH 7.0) at the concentration of 0.2 mM to obtain substrate solutions.
(§5) To the substrate solution (1.5 ml) was added the above cell suspension (0.3 ml) and reacted at 37° C. for 60 minutes. After completion of the reaction, a coloring reagent [prepared by dissolving diazonium salt of Garnet GBC in 1M acetate buffer (containing 10% Tween 20, pH: 4.2) at the concentration of 0.5 mg/ml] was added and, after 15 minutes, the absorption at 525 nm was determined with a spectrophotometer.
as §1
According to the same manner as described in Experiment 4, hydrolytic activity was tested by using the compounds of the formulas and [2], i.e., glycyl-proline-βnaphthylamide (GP), N-benzoyl-arginyl-glycyl-phenylalanylproline-β-naphthylamide (BzRGFP), N-carbobenzoxy-valylglycyl-arginine-β-naphthylamide (CxVGR) and N-benzoylglycyl-arginine-β-naphthylamide (BzGR) alone or in combination. Hydrolytic activity was determined by measuring absorption at 525 nm (OD525) and expressed as follows.

[6] = test system: Actinobacillus actinomycetemcomitans; test: Hydrolytic activity of oral anaerobe cell suspension on aminopeptidase substrates (Experiment 1); assay type: cell-based; settings: four strains, substrate 0.2 mM, pH 7.0, 37° C., 60 minutes, Table 1
Summary of the method: (§6)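 Treponema grown anaerobically in TYGVS (37 °C, 7 days) and other strains in brain heart infusion (37 °C, 48–72 h), then diluted to A660 1.0. Cells reacted 60 min at 37 °C with β-naphthylamine-derived substrates (0.2 mM solution, 0.1 M Tris-HCl pH 7.0). Garnet GBC coupling, A525 after 15 min; activity graded from mean released β-naphthylamine per strain.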

Fusobacterium nucleatum [7] = test: as above; assay type: cell-based; settings: three strains, substrate 0.2 mM, pH 7.0, 37° C., 60 minutes, Table 1
Summary of the method: as §6

Treponema denticola [8] = test: as above; assay type: cell-based; settings: four strains, substrate 0.2 mM, pH 7.0, 37° C., 60 minutes, Table 1
Summary of the method: as §6

Capnocytophaga sp. = test: as above; assay type: cell-based; settings: four strains, substrate 0.2 mM, pH 7.0, 37° C., 60 minutes, Table 1
Summary of the method: as §6

Bacteroides gingivalis = test: as above; assay type: cell-based; settings: five strains, substrate 0.2 mM, pH 7.0, 37° C., 60 minutes, Table 1
Summary of the method: as §6

[9] = test system: periodontopathic bacteria specific aminopeptidase activity; test: Hydrolytic activity of gingival crevicular fluid specimens, visually evaluated (Experiment 4); assay type: biochemical; set-up: key: -: orange; +: dark orange; ++: brown; +++: dark brown
Protocol: as §4, §5, §1
In table 4, hydrolytic activity was visually evaluated and expressed as follows: […]

[10] = test system: periodontopathic bacteria specific aminopeptidase activity; test: Hydrolytic activity of saliva supernatant, substrates alone or in combination (Experiment 9); assay type: biochemical; settings: 37° C. for 4 hours, Table 9
Protocol: as §2
According to the same manner as described in Experiment 7, hydrolytic activity was tested by using N-carbobenzoxy-valyl-glycyl-arginine-β-naphthylamide (CxVGR-βNA), N-benzoyl-arginyl-glycyl-phenylalanyl-proline-β-naphthylamide (BzRGFP-βNA), N-carbobenzoxy-valyl-glycylarginine-p-nitrophenol (CxVGR-pNP) and N-benzoyl-arginylglycyl-phenylalanyl-proline-p-nitrophenol (BzRGFP-pNP) alone or in combination as the substrates.

[11] = Localized juvenile periodontitis subjects
[12] = Gingivitis subject 1 (spirochete 7.3 %)
[13] = Gingivitis subject 2 (spirochete 16.7 %)
[14] = Gingivitis subject 3 (spirochete 20.5 %)
[15] = Gingivitis subject 4 (spirochete 6.8 %)
[16] = Gingivitis subject 5 (spirochete 7.3 %)
[17] = Gingivitis subject 6 (spirochete 14.4 %)
[18] = Healthy subject 1 (spirochete 0.1 %)
[19] = Healthy subject 2 (spirochete 2.5 %)
[20] = Healthy subject 3 (spirochete 1.1 %)
[21] = Healthy subject 4 (spirochete 0.6 %)
[22] = Healthy subject 5 (spirochete 1.3 %)
[23] = Periodontitis subject 1 (spirochete 45.2 %)
[24] = Periodontitis subject 2 (spirochete 30.3 %)
[25] = Periodontitis subject 3 (spirochete 34.6 %)
[26] = Periodontitis subject 4 (spirochete 21.2 %)
[27] = Periodontitis subject 5 (spirochete 40.3 %)
[28] = Periodontitis subject 6 (spirochete 35.1 %)

hydrolytic activity ([1]; Adult Periodontitis subjects): 35.6 ± 9.8 nmol/mL | hydrolytic activity ([1]; Healthy subjects): 16.1 ± 10.3 nmol/mL | hydrolytic activity [1, 11]: 33.4 ± 10.0 nmol/mL | hydrolytic activity, absorption at 525 nm (OD525) [5, 12]: + (0.1≤OD525 <0.2) | hydrolytic activity, absorption at 525 nm (OD525) [5, 13]: + (0.1≤OD525 <0.2) | hydrolytic activity, absorption at 525 nm (OD525) [5, 14]: ++ (0.2≤OD525 <0.4) | hydrolytic activity, absorption at 525 nm (OD525) [5, 15]: - (OD525 <0.1) | hydrolytic activity, absorption at 525 nm (OD525) [5, 16]: - (OD525 <0.1) | hydrolytic activity, absorption at 525 nm (OD525) [5, 17]: + (0.1≤OD525 <0.2) | hydrolytic activity, absorption at 525 nm (OD525) [5, 18]: - (OD525 <0.1) | hydrolytic activity, absorption at 525 nm (OD525) [5, 19]: + (0.1≤OD525 <0.2) | hydrolytic activity, absorption at 525 nm (OD525) [5, 20]: - (OD525 <0.1) | hydrolytic activity, absorption at 525 nm (OD525) [5, 21]: - (OD525 <0.1) | hydrolytic activity, absorption at 525 nm (OD525) [5, 22]: - (OD525 <0.1) | hydrolytic activity, absorption at 525 nm (OD525) [5, 23]: +++ (0.4≤OD525 <0.8) | hydrolytic activity, absorption at 525 nm (OD525) [5, 24]: +++ (0.4≤OD525 <0.8) | hydrolytic activity, absorption at 525 nm (OD525) [5, 25]: +++ (0.4≤OD525 <0.8) | hydrolytic activity, absorption at 525 nm (OD525) [5, 26]: +++ (0.4≤OD525 <0.8) | hydrolytic activity, absorption at 525 nm (OD525) [5, 27]: +++ (0.4≤OD525 <0.8) | hydrolytic activity, absorption at 525 nm (OD525) [5, 28]: +++ (0.4≤OD525 <0.8) | hydrolytic activity, visually evaluated [9, 12]: + | hydrolytic activity, visually evaluated [9, 13]: + | hydrolytic activity, visually evaluated [9, 14]: ++ | hydrolytic activity, visually evaluated [9, 15]: - | hydrolytic activity, visually evaluated [9, 16]: - | hydrolytic activity, visually evaluated [9, 17]: + | hydrolytic activity, visually evaluated [9, 18]: - | hydrolytic activity, visually evaluated [9, 19]: + | hydrolytic activity, visually evaluated [9, 20]: - | hydrolytic activity, visually evaluated [9, 21]: - | hydrolytic activity, visually evaluated [9, 22]: - | hydrolytic activity, visually evaluated [9, 23]: +++ | hydrolytic activity, visually evaluated [9, 24]: +++ | hydrolytic activity, visually evaluated [9, 25]: +++ | hydrolytic activity, visually evaluated [9, 26]: +++ | hydrolytic activity, visually evaluated [9, 27]: +++ | hydrolytic activity, visually evaluated [9, 28]: +++ | hydrolytic activity ([10]; Adult Periodontitis subjects): 34.8 ± 10.2 nmol/mL | hydrolytic activity ([10]; Healthy subjects): 15.0 ± 8.8 nmol/mL | hydrolytic activity [10, 11]: 31.5 ± 9.8 nmol/mL
SMILES: CC(C)[C@H](NC(=O)OCc1ccccc1)C(=O)NCC(=O)N[C@@H](CCCNC(=N)N)C(=O)Nc1ccc2ccccc2c1 [CxVGR, N-carbobenzoxy-valyl-glycyl-arginine-β-naphthylamide] (Cbz-Val-Gly-Arg-βNA)
hydrolytic activity (release amount) [2]: - (release amount<5 nmol/ml) | hydrolytic activity (release amount) (Fusobacterium nucleatum [3]): - (release amount<5 nmol/ml) | hydrolytic activity (release amount) (Treponema denticola [4]): +++ (40≤release amount<80 nmol/ml) | hydrolytic activity (release amount) (B. gingivalis): +++ (40≤release amount<80 nmol/ml) | hydrolytic activity (release amount) (Actinomyces israelli): - (release amount<5 nmol/ml) | hydrolytic activity (average amount of released β-naphthylamine) [6]: - (release amount<5 nmol/ml) | hydrolytic activity (average amount of released β-naphthylamine) (Fusobacterium nucleatum [7]): - (release amount<5 nmol/ml) | hydrolytic activity (average amount of released β-naphthylamine) (Treponema denticola [8]): +++ (release amount≥40 nmol/ml) | hydrolytic activity (average amount of released β-naphthylamine) (Capnocytophaga sp.): - (release amount<5 nmol/ml) | hydrolytic activity (average amount of released β-naphthylamine) (Bacteroides gingivalis): +++ (release amount≥40 nmol/ml)
